Experimental data as given in ChEMBL document CHEMBL1159355, “New dihydrostilbene derivatives from the leaves of Glycyrrhiza glabra and evaluation of their antioxidant activity” (J Nat Prod, 2003).

experiment: Antioxidant activity against linolenic acid oxidation assessed as inhibition rate constant for conjugated diene hydroperoxide formation; type: functional

| Compound | Activity [×10⁴ /M/s] |
| --- | --- |
| CC(C)=CCc1cc(CCc2cc(O)cc(O)c2)cc(O)c1O | 9 |
| CC(C)=CCc1cc(CCc2cc(O)c(CC=C(C)C)c(O)c2)cc(O)c1O | 11 |
| CC(C)=CCc1cc(CCc2cc(O)cc(O)c2)ccc1O | 6 |
| CC(C)=CCc1cc(CCc2cc(O)c(CC=C(C)C)c(O)c2)ccc1O | 7 |
| COc1c(O)cc(CCc2cc(O)cc(O)c2)cc1CC=C(C)C | 8 |
